Experimental data: patent US20120082658A1, “Methods for the Treatment of Allergic Diseases” (VentiRx Pharmaceuticals, Inc., priority 2010, published 2012)
Like-named read-outs stand apart in the source and are kept apart here.

Tested on: human peripheral blood mononuclear cells (PBMCs)
Assay: Cytokine production in isolated human PBMCs
Type: cell-based
Conditions: for EC50: Homo sapiens, PBMC
Procedure: Preclinical studies were performed with VTX-378, the active pharmaceutical ingredient in VTX-1463. The specificity of VTX-378 for human TLR8 relative to other TLRs was assessed in transfected Human Embryonic Kidney 293 (HEK293) cells engineered to express individual TLRs (2-9) via transfection, and assessed using an NF-κB driven reporter system. […] The pharmacologic effects of VTX-378 were characterized in vitro using isolated human peripheral blood mononuclear cells (PBMCs).

Q: Which results are given for `CC(C)Cn1cnc2c(N)nc3ccccc3c21` [Imiquimod, imiquimod, reference compound]?
A: EC50 (analyte IL-10, read-out: EC50, IL-10 production): 17 µM; EC50 (analyte IL-12p40, read-out: EC50, IL-12p40 production): 0.27 µM; Mean Mediator Level ± SEM, IL-10 (Imiquimod 25 uM): 59 ± 24 pg/mL; Mean Mediator Level ± SEM, IL-12p40 (Imiquimod 25 uM): 10.2 ± 3.5 pg/mL; Mean Mediator Level ± SEM, IL-12p70 (Imiquimod 25 uM): 0.6 ± 0.6 pg/mL
